Series [1] in a line: Cytotoxicity assay for HepG2 (MTT). The series is classed as cell-based, human. Particulars: human. Here is the method: (§1) Mammalian cytotoxicity assays were performed by Cyprotex. Cytotoxicity was assessed using the MTT assay. Briefly, HepG2 human hepatocellular carcinoma cells (100 μL per well) were plated on black-walled clear-bottomed polystyrene 96-well tissue culture treated plates 24 h prior to dosing the cells. The cells were dosed with test compound (dissolved in 0.5% DMSO in growth media containing 10% FBS) at a range of concentrations (0.04 μM, 0.1 μM, 0.4 μM, 1 μM, 4 μM, 10 μM, 40 μM, 100 μM). After 23 h period the cells were loaded with the MTT dye (yellow; 3-(4,5-dimethyl-2-thiazolyl)-2,5-diphenyl-2H-tetrazolium bromide) followed by an additional 1 h incubation (resulting in a total incubation time with antibiotics of 24 h). Subsequently, the plates are dried and solubilized in DMSO followed by scanning at 570 nm using a microplate absorbance reader. Cell viability is determined by conversion of the soluble MTT to insoluble formazan (purple) by mitochondrial […] in live cells. Production of formazan indicates […]. Carbonyl cyanide 3-chlorophenylhydrazone is used as no response control and chlorpromazine is used as control known to be cytotoxic. Solvent control wells (0.5% DMSO in growth media containing 10% FBS) are then used to determine significance limits for wells that have a greater than expected fraction of low or high responders. The minimum effective concentration is determined from the lowest concentration whose mean value exceeds the significance level, provided either a clear dose-response relationship is observed, or at least two consecutive concentration points are above the significance level. AC50 values are also determined provided a clear dose-response relationship is observed. Experiment was performed in triplicates.

For series [2], the system named is HepG2 human hepatocellular carcinoma cells. Put plainly: Cytotoxicity assay for HepG2 (MTT). The series is classed as cell-based. Here is the method:
as §1

In series [3] the test system is E. faecium E980. Put plainly: MIC assay. The series is classed as cell-based, Enterococcus faecium. Here is the method: (§2) The antibacterial activity of the compounds was tested against a panel of bacteria, including Gram-positive bacteria (S. aureus ATCC29213, S. aureus USA300, S. aureus LIM-2, NR-45881, S. aureus HIP13419, NR-46413, E. faecium E155, E. faecium E7314, E. faecium E980, E. faecalis E1246, E. faecalis E7406 and S. pneumonia 153). The antibacterial activity of the compounds was further tested against S. aureus NY-155, NR-46236, S. aureus HIP12864, NR-46074, S. aureus 880 (BR-VRSA), NR-49120, E. faecalis E1246, E. faecalis E7604, as well as some Gram-negative bacteria (Escherichia coli and Klebsiella pneumoniae). Minimum inhibitory concentrations (MICs) in μg/mL were performed according to the CLSI guidelines. From glycerol stocks, bacterial strains were cultured on blood agar plates and incubated at 37° C. for 18 h. A single colony was transferred to tryptic soy broth (TSB) with 0.002% polysorbate 80 (p80). For the Enterococcus, VISA and VRSA strains, the cultures were grown at 37° C. until the optical density of the suspension reached a level equivalent to the 0.5 McFarland standard. The bacterial suspensions were diluted in TSB with 0.002% p80 to reach a bacterial cell density of 10^6 CFU/mL. In case of the other (vancomycin-sensitive) S. aureus strains, the direct colony suspension method was used. For these strains, after transfer of the colonies to TSB with 0.002% p80, they were immediately diluted to 10^6 CFU/mL, instead of incubated prior to this dilution. In the case of S. pneumonia, direct colony suspension was used by immediately suspending multiple colonies from fresh blood agar plates in TSB+0.002% p80 to an OD600 of 0.5 and subsequent dilution to 10^6 CFU mL^−1 in TSB+0.002% p80+5% lysed horse blood. Antibiotic dilutions for this strains were also made in TSB+0.002% p80+5% lysed horse blood. Both agar and microplates containing S. pneumonia were incubated at 37° C. with 5% CO2 for 24 h with constant shaking (600 rpm). […] The cultures were grown to exponential phase (OD600=0.5) at 37° C. […] In polypropylene 96-well microtiter plates, test compounds were added in biological triplicates and serial diluted 2-fold by transfer and mixing from one well to the next to achieve a final volume of 50 μL per well. An equal volume of bacterial suspension (10^6 CFU mL^−1) was added to the wells. The plates were sealed with breathable membranes and incubated at 37° C. for 24 h with constant shaking (600 rpm). In polypropylene microtiter plates, 100 μL of the test compounds was added to the first row in biological triplicates, and 50 μL of media was added to the other wells. The compounds were subjected to serial dilution by transfer and mixing of 50 μL from one well to the next. Subsequently, 50 μL of bacterial suspension (10^6 CFU/mL) was added to the wells. The plates were sealed with breathable membranes and incubated at 37° C. for 24 h with constant shaking (600 rpm). Positive growth control consisted of wells with bacterial suspension and without antibiotic. Negative growth control consisted of solely media without bacterial suspension or antibiotic. The MICs were determined from the median of a minimum of triplicates.

For series [4], the system named is E. faecium E7314. Put plainly: microbe, parasite or virus in culture. The series is classed as cell-based, Enterococcus faecium. As to the method:
as §2

For series [5], the system named is E. faecium E155. Kind of series: microbe, parasite or virus in culture. The series is classed as cell-based, Enterococcus faecium. Here is the method:
as §2

The subject of series [6] is S. aureus 880 (BR-VRSA), NR-49120. Put plainly: MIC assay. As to conditions: S. aureus 880, NR-49120 VRSA. The series is classed as cell-based, Staphylococcus aureus. As to the method:
as §2

For series [7], the system named is S. aureus LIM-2, NR-25881. Kind of series: MIC assay. The series is classed as cell-based, Staphylococcus aureus. Particulars: S. aureus LIM-2, NR-25881 VISA. As to the method: as §2
Series [8] relates to S. aureus ATCC29213. Kind of series: MIC assay. The series is classed as cell-based, Staphylococcus aureus. As to the method:
as §2

The test system of series [9] is S. aureus NY-155, NR-46236. Put plainly: MIC assay. The series is classed as cell-based, Staphylococcus aureus. Particulars: S. aureus NY-155, NR-46236 MRSA. As to the method:
as §2

The subject of series [10] is S. aureus HIP12864, NR-46074. Put plainly: MIC assay. The series is classed as cell-based, Staphylococcus aureus. Particulars: S. aureus HIP12864, NR-46074 VISA. As to the method:
as §2

In series [11] the test system is MRSA USA300. Kind of series: MIC assay in the presence of sheep serum. The series is classed as cell-based, Staphylococcus aureus. As to conditions: MRSA USA300, TSB + 0.002% p80 + 50% sheep serum. Here is the method: as §2
The activity of the compounds was further assessed against MRSA USA300 strain in the presence of sheep) serum in another MIC assay. The cultures that grew in the presence of serum used TSB+0.002% P80+50% sheep serum as growth media, as opposed to normal MICs done in only TSB+0.002% P80.

Series [12] relates to E. faecalis E1246. Kind of series: MIC assay. The series is classed as cell-based, Enterococcus faecalis. Here is the method:
as §2

The test system of series [13] is S. pneumoniae 153. Put plainly: MIC assay. The series is classed as cell-based. Particulars: S. pneumoniae 153, TSB+0.002% p80+5% lysed horse blood. Here is the method:
as §2

Series [14] relates to S. aureus USA300. Put plainly: microbe, parasite or virus in culture. The series is classed as cell-based, Staphylococcus aureus. As to the method: as §2
For series [15], the system named is S. aureus HIP13419, NR-46413. Kind of series: microbe, parasite or virus in culture. The series is classed as cell-based, Staphylococcus aureus. As to the method: as §2
In series [16] the test system is E. faecalis E7406. Kind of series: microbe, parasite or virus in culture. The series is classed as cell-based, Enterococcus faecalis. As to the method: as §2
The subject of series [17] is E. faecalis E7604. Kind of series: microbe, parasite or virus in culture. The series is classed as cell-based, Enterococcus faecalis. As to the method:
as §2

Setting [18] is: E. faecalis E1246 VRE (vanA), Table 9.
The mark [19] stands for this setting: Staphylococcus aureus, read-out: MIC.

From patent US20230174584A1, “Antibiotic Compounds” (priority 2019, published 2023) come the findings set out here.

Values after ≈ are worked out from the molar mass of the structure shown. Read-outs that look alike come from different tables or passages of the source.

The AC50 is the midpoint of the concentration-response curve, whichever way the signal moves. `CN(C)CCCN1c2ccccc2Sc2ccc(Cl)cc21` [Chropromazine] registered a concentration at half-maximal activity (AC50) at 24 h in series [1] of 19 µM. The “Direction of response (↑↓)” value in series [2] is given as “↓”. Moreover, in series [2] (human, 24 h), the MEC amounted to 12.4 µM.
For the compound `CN[C@H](CC(C)C)C(=O)N[C@H]1C(=O)N[C@@H](CC(N)=O)C(=O)N[C@H]2C(=O)N[C@H]3C(=O)N[C@H](C(=O)N[C@H](C(=O)O)c4cc(O)cc(O)c4-c4cc3ccc4O)[C@H](O)c3ccc(c(Cl)c3)Oc3cc2cc(c3O[C@@H]2O[C@H](CO)[C@@H](O)[C@H](O)[C@H]2O[C@H]2C[C@](C)(NCc3ccc(N=C(N)NCC45CC6CC(CC(C6)C4)C5)cc3)[C@H](O)[C@H](C)O2)Oc2ccc(cc2Cl)[C@H]1O` [Compound 18], the MIC in series [3] (E. faecium E980 VSE) is ≤0.008 µg/mL; in [4] (E. faecium E7314 VRE (VanB)) it was ≤0.008 µg/mL; in [5] (E. faecium E155 VRE (VanA)), 2 µg/mL (≈ 1.15 µM); in series [6] it was 2 µg/mL (≈ 1.15 µM); in series [7], 0.016 µg/mL (≈ 0.00917 µM); in series [8] (S. aureus ATCC29213 MSSA), ≤0.008 µg/mL. Further, the MIC in series [9] was ≤0.008 µg/mL; in series [10], ≤0.016 µg/mL; in [11], 0.031 µg/mL; in series [12] (E. faecalis E1246 VRE (VanA), Table 7), 16 µg/mL (≈ 9.17 µM); in [12] (setting [18]), 16 µg/mL (≈ 9.17 µM); in [13], ≤0.008 µg/mL. Also, the MIC is ≤0.008 µg/mL in series [14] (MRSA USA300, TSB + 0.002% p80); ≤0.008 µg/mL in [14] (S. aureus USA300 MRSA); 2 µg/mL (≈ 1.15 µM) in series [15] (S. aureus HIP13419, NR-46413 VRSA); ≤0.008 µg/mL in series [16] (E. faecalis E7406 VRE (VanB)); ≤0.008 µg/mL in series [17] (E. faecalis E7604 VRE (vanB)).
As for `CN[C@H]1C(=O)N[C@@H]2Cc3ccc(cc3)Oc3cc4cc(c3O[C@@H]3O[C@H](C(=O)O)[C@@H](O)[C@H](O)[C@H]3NC(=O)CCCCCCCCC(C)C)Oc3ccc(cc3Cl)[C@@H](O)[C@@H]3NC(=O)[C@H](NC(=O)[C@@H]4NC(=O)[C@@H](NC2=O)c2cc(cc(O)c2Cl)Oc2cc1ccc2O)c1ccc(O)c(c1)-c1c(O[C@H]2O[C@H](CO)[C@@H](O)[C@H](O)[C@@H]2O)cc(O)cc1[C@@H](C(=O)NCCCN(C)C)NC3=O` [Dalbavancin, reference compound], the MIC amounted to 0.0625 µg/mL (≈ 0.0344 µM) in series [3] (Enterococcus faecium, E980); 0.0156 µg/mL (≈ 0.0086 µM) in series [4] (Enterococcus faecium, VRE); 128 µg/mL (≈ 70.5 µM) in series [5] (Enterococcus faecium, VRE); 2 µg/mL (≈ 1.1 µM) in series [6] (setting [19]); 1 µg/mL (≈ 0.55 µM) in series [7] (setting [19]); 0.25 µg/mL (≈ 0.138 µM) in [8] (Staphylococcus aureus, ATCC 29213 / MSSA). Moreover, the MIC in [9] (setting [19]) was ≤ 0.008 µg/mL; in series [10] (setting [19]), 0.5 µg/mL (≈ 0.275 µM); in [11] (Staphylococcus aureus, 24 h, read-out: MIC) it was 2 µg/mL; in series [12] (setting [18]), >128 µg/mL; in [12] (Enterococcus faecalis, E. faecalis E1246 VRE (VanA), Table 7, read-out: MIC) it was > 128 µg/mL; in series [13] (Streptococcus pneumoniae, read-out: MIC) it was ≤ 0.008 µg/mL. In addition, the MIC in series [14] (Staphylococcus aureus, MRSA / USA300) amounted to 0.25 µg/mL (≈ 0.138 µM); in series [15] (Staphylococcus aureus, VRSA), 16 µg/mL (≈ 8.81 µM); in series [16] (Enterococcus faecalis, VRE), 0.0312 µg/mL (≈ 0.0172 µM); in [17] (Enterococcus faecalis, VRE), 0.031 µg/mL (≈ 0.0171 µM).
With `N#CC(C#N)=NNc1cccc(Cl)c1` [carbonyl cyanide 3-chlorophenylhydrazone], the AC50 at 24 h in [1] (HepG2 human hepatocellular carcinoma cells, MTT, HepG2, 24 h, 10% FBS, n = 3, read-out: AC50) is > 100 µM.
